According to patent publication US3955959A, “Herbicide for use in transplanted rice” (priority 1974, dated 1976):

Legend:
Assay in all cases: Example 6 weed control, JAAPR, Japan
Format in all cases: in vivo
Cs (Cyperus serotinus) = conditions: Normal season
Protocol: (§1) In this example, the efficacy of Herbicide A is presented for a variety of weeds in the presence of ordinary and infant transplant rice. In this example, tests were conducted at the said JAAPR Lab at different times of the year. "Early season" transplants were made in April and "Normal season" transplants were made in July. The size of the transplants at the respective seasons were: Season Seedling Type Plant Height (cm) Leaf Stage ______________________________________ Early Ordinary 16.5 4.5 Early Infant 9.1 2.4 Normal Ordinary 41.7 5.3 Normal Infant 14.7 1.9 ______________________________________
(§2) Duplicate treatments were used. At the time of application of the herbicide, the status of the grass (EC) was as follows: […]

[1] = tested on: Ea (Eleocharis acicularis)
Protocol: as §1, §2

Et (Elatine triandra) = tested on: Et (Elatine triandra)
Protocol: as §1, §2

Ri (Rotala indica) = tested on: Ri (Rotala indica)
Protocol: as §1, §2

Sp (Sagittaria pygmaea) = conditions: Normal season
Protocol: as §1, §2

[2] = tested on: Mv (Monochoria vaginalis)
Protocol: as §1, §2

Sh (Scirpus hotarui) = conditions: Normal season
Protocol: as §1, §2

[3] = tested on: Obw (other broadleaf weeds); conditions: ordinary
Protocol: as §1, §2

[4] = tested on: Ec (Echinochloa crusgalli)
Protocol: as §1, §2

[5] = Early season, ordinary, 1.0 kg/ha, 3 DAT
[6] = Early season, ordinary, 1.0 kg/ha, 12 DAT
[7] = Early season, ordinary, 1.0 kg/ha, -2 DAT
[8] = Early season, ordinary, .5 kg/ha, 3 DAT
[9] = Early season, ordinary, .5 kg/ha, 12 DAT
[10] = Early season, ordinary, .5 kg/ha, -2 DAT
[11] = Normal season, infant, 1.0 kg/ha, 3 DAT
[12] = Normal season, infant, 1.0 kg/ha, 7 DAT
[13] = Normal season, infant, 1.0 kg/ha, -2 DAT
[14] = Normal season, infant, .5 kg/ha, 3 DAT
[15] = Normal season, infant, .5 kg/ha, 7 DAT
[16] = Normal season, infant, .5 kg/ha, -2 DAT
[17] = Normal season, ordinary, 1.0 kg/ha, 3 DAT
[18] = Normal season, ordinary, 1.0 kg/ha, 7 DAT
[19] = Normal season, ordinary, 1.0 kg/ha, -2 DAT
[20] = Normal season, ordinary, .5 kg/ha, 3 DAT
[21] = Normal season, ordinary, .5 kg/ha, 7 DAT
[22] = Normal season, ordinary, .5 kg/ha, -2 DAT

Compound: CCCCOCN(C(=O)CCl)c1c(C)cccc1C(C)(C)C [Herbicide A, n-(butoxymethyl)-6'-tert-butyl-2-chloro-o-acetotoluidide]
- % Weed Control (Cs) (Cs (Cyperus serotinus); infant, 1.0 kg/ha, 3 DAT): 100%
- % Weed Control (Cs) (Cs (Cyperus serotinus); infant, 1.0 kg/ha, 7 DAT): 100%
- % Weed Control (Cs) (Cs (Cyperus serotinus); infant, 1.0 kg/ha, -2 DAT): 100%
- % Weed Control (Cs) (Cs (Cyperus serotinus); infant, .5 kg/ha, 3 DAT): 100%
- % Weed Control (Cs) (Cs (Cyperus serotinus); infant, .5 kg/ha, 7 DAT): 100%
- % Weed Control (Cs) (Cs (Cyperus serotinus); infant, .5 kg/ha, -2 DAT): 100%
- % Weed Control (Cs) (Cs (Cyperus serotinus); ordinary, 1.0 kg/ha, 3 DAT): 100%
- % Weed Control (Cs) (Cs (Cyperus serotinus); ordinary, 1.0 kg/ha, 7 DAT): 100%
- % Weed Control (Cs) (Cs (Cyperus serotinus); ordinary, 1.0 kg/ha, -2 DAT): 100%
- % Weed Control (Cs) (Cs (Cyperus serotinus); ordinary, .5 kg/ha, 3 DAT): 100%
- % Weed Control (Cs) (Cs (Cyperus serotinus); ordinary, .5 kg/ha, 7 DAT): 100%
- % Weed Control (Cs) (Cs (Cyperus serotinus); ordinary, .5 kg/ha, -2 DAT): 100%
- % Weed Control (Ea) [1, 5]: 100%
- % Weed Control (Ea) [1, 6]: 100%
- % Weed Control (Ea) [1, 7]: 100%
- % Weed Control (Ea) [1, 8]: 100%
- % Weed Control (Ea) [1, 9]: 100%
- % Weed Control (Ea) [1, 10]: 100%
- % Weed Control (Ea) [1, 11]: 100%
- % Weed Control (Ea) [1, 12]: 100%
- % Weed Control (Ea) [1, 13]: 100%
- % Weed Control (Ea) [1, 14]: 100%
- % Weed Control (Ea) [1, 15]: 100%
- % Weed Control (Ea) [1, 16]: 100%
- % Weed Control (Ea) [1, 17]: 100%
- % Weed Control (Ea) [1, 18]: 100%
- % Weed Control (Ea) [1, 19]: 100%
- % Weed Control (Ea) [1, 20]: 100%
- % Weed Control (Ea) [1, 21]: 100%
- % Weed Control (Ea) [1, 22]: 100%
- % Weed Control (Et) (Et (Elatine triandra); [5]): 95%
- % Weed Control (Et) (Et (Elatine triandra); [6]): 70%
- % Weed Control (Et) (Et (Elatine triandra); [7]): 95%
- % Weed Control (Et) (Et (Elatine triandra); [8]): 70%
- % Weed Control (Et) (Et (Elatine triandra); [9]): < 40%
- % Weed Control (Et) (Et (Elatine triandra); [10]): 95%
- % Weed Control (Et) (Et (Elatine triandra); [11]): 100%
- % Weed Control (Et) (Et (Elatine triandra); [12]): 100%
- % Weed Control (Et) (Et (Elatine triandra); [13]): 100%
- % Weed Control (Et) (Et (Elatine triandra); [14]): 100%
- % Weed Control (Et) (Et (Elatine triandra); [15]): 100%
- % Weed Control (Et) (Et (Elatine triandra); [16]): 100%
- % Weed Control (Et) (Et (Elatine triandra); [17]): 100%
- % Weed Control (Et) (Et (Elatine triandra); [18]): 100%
- % Weed Control (Et) (Et (Elatine triandra); [19]): 100%
- % Weed Control (Et) (Et (Elatine triandra); [20]): 100%
- % Weed Control (Et) (Et (Elatine triandra); [21]): 100%
- % Weed Control (Et) (Et (Elatine triandra); [22]): 100%
- % Weed Control (Ri) (Ri (Rotala indica); [5]): 100%
- % Weed Control (Ri) (Ri (Rotala indica); [6]): 100%
- % Weed Control (Ri) (Ri (Rotala indica); [7]): 100%
- % Weed Control (Ri) (Ri (Rotala indica); [8]): 100%
- % Weed Control (Ri) (Ri (Rotala indica); [9]): 100%
- % Weed Control (Ri) (Ri (Rotala indica); [10]): 100%
- % Weed Control (Ri) (Ri (Rotala indica); [11]): 100%
- % Weed Control (Ri) (Ri (Rotala indica); [12]): 100%
- % Weed Control (Ri) (Ri (Rotala indica); [13]): 100%
- % Weed Control (Ri) (Ri (Rotala indica); [14]): 100%
- % Weed Control (Ri) (Ri (Rotala indica); [15]): 100%
- % Weed Control (Ri) (Ri (Rotala indica); [16]): 100%
- % Weed Control (Ri) (Ri (Rotala indica); [17]): 100%
- % Weed Control (Ri) (Ri (Rotala indica); [18]): 100%
- % Weed Control (Ri) (Ri (Rotala indica); [19]): 100%
- % Weed Control (Ri) (Ri (Rotala indica); [20]): 100%
- % Weed Control (Ri) (Ri (Rotala indica); [21]): 100%
- % Weed Control (Ri) (Ri (Rotala indica); [22]): 100%
- % Weed Control (Sp) (Sp (Sagittaria pygmaea); infant, 1.0 kg/ha, 3 DAT): < 40%
- % Weed Control (Sp) (Sp (Sagittaria pygmaea); infant, 1.0 kg/ha, 7 DAT): < 40%
- % Weed Control (Sp) (Sp (Sagittaria pygmaea); infant, 1.0 kg/ha, -2 DAT): < 40%
- % Weed Control (Sp) (Sp (Sagittaria pygmaea); infant, .5 kg/ha, 3 DAT): < 40%
- % Weed Control (Sp) (Sp (Sagittaria pygmaea); infant, .5 kg/ha, 7 DAT): < 40%
- % Weed Control (Sp) (Sp (Sagittaria pygmaea); infant, .5 kg/ha, -2 DAT): < 40%
- % Weed Control (Sp) (Sp (Sagittaria pygmaea); ordinary, 1.0 kg/ha, 3 DAT): < 40%
- % Weed Control (Sp) (Sp (Sagittaria pygmaea); ordinary, 1.0 kg/ha, 7 DAT): < 40%
- % Weed Control (Sp) (Sp (Sagittaria pygmaea); ordinary, 1.0 kg/ha, -2 DAT): < 40%
- % Weed Control (Sp) (Sp (Sagittaria pygmaea); ordinary, .5 kg/ha, 3 DAT): < 40%
- % Weed Control (Sp) (Sp (Sagittaria pygmaea); ordinary, .5 kg/ha, 7 DAT): < 40%
- % Weed Control (Sp) (Sp (Sagittaria pygmaea); ordinary, .5 kg/ha, -2 DAT): < 40%
- % Weed Control (Mv) [2, 5]: 100%
- % Weed Control (Mv) [2, 6]: 95%
- % Weed Control (Mv) [2, 7]: 100%
- % Weed Control (Mv) [2, 8]: 95%
- % Weed Control (Mv) [2, 9]: 95%
- % Weed Control (Mv) [2, 10]: 95%
- % Weed Control (Mv) [2, 11]: 100%
- % Weed Control (Mv) [2, 12]: 85%
- % Weed Control (Mv) [2, 13]: 100%
- % Weed Control (Mv) [2, 14]: 100%
- % Weed Control (Mv) [2, 15]: 70%
- % Weed Control (Mv) [2, 16]: 100%
- % Weed Control (Mv) [2, 17]: 100%
- % Weed Control (Mv) [2, 18]: 100%
- % Weed Control (Mv) [2, 19]: 100%
- % Weed Control (Mv) [2, 20]: 100%
- % Weed Control (Mv) [2, 21]: 95%
- % Weed Control (Mv) [2, 22]: 100%
- % Weed Control (Sh) (Sh (Scirpus hotarui); infant, 1.0 kg/ha, 3 DAT): 100%
- % Weed Control (Sh) (Sh (Scirpus hotarui); infant, 1.0 kg/ha, 7 DAT): 100%
- % Weed Control (Sh) (Sh (Scirpus hotarui); infant, 1.0 kg/ha, -2 DAT): 100%
- % Weed Control (Sh) (Sh (Scirpus hotarui); infant, .5 kg/ha, 3 DAT): 100%
- % Weed Control (Sh) (Sh (Scirpus hotarui); infant, .5 kg/ha, 7 DAT): 100%
- % Weed Control (Sh) (Sh (Scirpus hotarui); infant, .5 kg/ha, -2 DAT): 100%
- % Weed Control (Sh) (Sh (Scirpus hotarui); ordinary, 1.0 kg/ha, 3 DAT): 100%
- % Weed Control (Sh) (Sh (Scirpus hotarui); ordinary, 1.0 kg/ha, 7 DAT): 100%
- % Weed Control (Sh) (Sh (Scirpus hotarui); ordinary, 1.0 kg/ha, -2 DAT): 100%
- % Weed Control (Sh) (Sh (Scirpus hotarui); ordinary, .5 kg/ha, 3 DAT): 100%
- % Weed Control (Sh) (Sh (Scirpus hotarui); ordinary, .5 kg/ha, 7 DAT): 100%
- % Weed Control (Sh) (Sh (Scirpus hotarui); ordinary, .5 kg/ha, -2 DAT): 100%
- % Weed Control (Obw) ([3]; Early season, 1.0 kg/ha, 3 DAT): 100%
- % Weed Control (Obw) ([3]; Early season, 1.0 kg/ha, 12 DAT): 50%
- % Weed Control (Obw) ([3]; Early season, 1.0 kg/ha, -2 DAT): 100%
- % Weed Control (Obw) ([3]; Early season, .5 kg/ha, 3 DAT): 100%
- % Weed Control (Obw) ([3]; Early season, .5 kg/ha, 12 DAT): 100%
- % Weed Control (Obw) ([3]; Early season, .5 kg/ha, -2 DAT): 100%
- % Weed Control (Obw) ([3]; Normal season, 1.0 kg/ha, 3 DAT): 100%
- % Weed Control (Obw) ([3]; Normal season, 1.0 kg/ha, 7 DAT): 100%
- % Weed Control (Obw) ([3]; Normal season, 1.0 kg/ha, -2 DAT): 100%
- % Weed Control (Obw) ([3]; Normal season, .5 kg/ha, 3 DAT): 100%
- % Weed Control (Obw) ([3]; Normal season, .5 kg/ha, 7 DAT): 100%
- % Weed Control (Obw) ([3]; Normal season, .5 kg/ha, -2 DAT): 100%
- % Weed Control (Ec) [4, 5]: 100%
- % Weed Control (Ec) [4, 6]: 100%
- % Weed Control (Ec) [4, 7]: 100%
- % Weed Control (Ec) [4, 8]: 100%
- % Weed Control (Ec) [4, 9]: 100%
- % Weed Control (Ec) [4, 10]: 100%
- % Weed Control (Ec) [4, 11]: 100%
- % Weed Control (Ec) [4, 12]: 100%
- % Weed Control (Ec) [4, 13]: 100%
- % Weed Control (Ec) [4, 14]: 100%
- % Weed Control (Ec) [4, 15]: 100%
- % Weed Control (Ec) [4, 16]: 100%
- % Weed Control (Ec) [4, 17]: 100%
- % Weed Control (Ec) [4, 18]: 100%
- % Weed Control (Ec) [4, 19]: 100%
- % Weed Control (Ec) [4, 20]: 100%
- % Weed Control (Ec) [4, 21]: 95%
- % Weed Control (Ec) [4, 22]: 100%
